Key:
DHODH [1] = biological target: T1, DHODH (Homo sapiens (Human), UniProt Q02127); conditions: cited from earlier work
Target sequence in this assay (Q02127 whole entry, species assumed): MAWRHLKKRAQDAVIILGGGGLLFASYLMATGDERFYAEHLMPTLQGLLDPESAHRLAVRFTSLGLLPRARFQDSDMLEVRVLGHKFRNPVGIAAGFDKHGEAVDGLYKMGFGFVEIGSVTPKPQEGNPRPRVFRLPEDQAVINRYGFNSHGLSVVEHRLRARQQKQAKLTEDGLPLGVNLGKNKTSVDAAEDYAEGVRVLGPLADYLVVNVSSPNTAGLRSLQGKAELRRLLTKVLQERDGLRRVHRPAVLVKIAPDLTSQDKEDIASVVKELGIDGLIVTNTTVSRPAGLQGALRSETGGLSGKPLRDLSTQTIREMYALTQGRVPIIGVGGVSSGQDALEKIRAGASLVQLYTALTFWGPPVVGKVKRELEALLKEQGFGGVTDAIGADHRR

DHODH [2] = biological target: T1, DHODH; test: DHODH activity assay (coupled enzyme assay, DCIP reduction); type: biochemical; conditions: read-out: DHODH inhibition activity, IC50 group
Description: The DHODH activity assay is a coupled enzyme assay in which oxidation of DHO and subsequent reduction of ubiquinone are stoichiometrically equivalent to the reduction of DCIP ([…]). The reduction of DCIP is accompanied by a loss of absorbance at 610 nm.
Buffer Preparation: 50 mM tris HCl, 150 mM KCl, and pH 8.0, 0.8% triton.
L-Dihydroorotic acid stock solution of 20 mM in buffer.
2, 6-Dichloroindophenol Sodium salt hydrate stock solution of 20 mM in buffer.
Decylubiquinone stock solution of 20 mM in buffer.
5 μL of Dimethyl sulfoxide or a compound of formula (I) in DMSO solution was added to the wells of a 96 well plate. Compounds of formula (I) were measured at 10 μM.
Protein along with buffer was added, so that the total volume including the DMSO was 87 μL. Compound and protein were incubated for half an hour at room temperature after mixing. 5 μL of 20 mM solution of L-Dihydroorotic acid, 5 μL of 2 mM solution of Decylubiquinone and 3 μL of 2 mM solution of 2, 6-Dichloroindophenol sodium salt hydrate were added to the above solution (total assay volume 100 μL). The mixture was stirred for 2 min and absorbance was recorded at every 10 min at 610 nanometers.
Percent inhibition is calculated as follows: […]
A 2 mM DMSO stock solution of the selected trisubstituted benzoimidazole and benzotriazole derivatives of formula (I) of the present invention to be examined was prepared. Subsequent ⅓rd dilutions were made.
5 μL of each stock of compound of formula (I) was used for each 100 μL assay. Therefore, 5 μL of the 2 mM stock provided 100 μL of 100 μM solution of compound of formula (I), when made up with buffer, protein and substrate. See also: Ulrich et al. (2001) Eur. J. Biochem.268, 1861-1868.
Target sequence in this assay (Q02127 whole entry): as the sequence (Q02127 whole entry, species assumed) above

Ramos cells = test: Ramos proliferation assay (XTT); type: cell-based; conditions: Homo sapiens, 72 hrs; for inhibition at 30 µM: read-out: Maximum % Inhibition at 30 μM; for IC50: XTT; for inhibition at 10 µM: read-out: Maximum % Inhibition (at 10 μM)
Text: Cell proliferation assay is a sensitive method for quantification of viable cells in cytotoxicity or proliferation assay. The XTT (2,3-bis[2-Methoxy-4-nitro-5-sulfophenyl]-2 H-tetrazolium-5-carboxyanilide inner salt) system is a means of measuring the activity of living cells via mitochondrial dehydrogenases. Mitochondrial dehydrogenases of viable cells cleave the tetrazolium ring of XTT, yielding orange formazon crystals which are soluble in aqueous solutions. The XTT solution is potentiated by the addition of an electron coupling agent, phenazine methosulphate (PMS) to the reaction. The resulting orange colour is spectrophotometrically measured at 450 nm. An increase or decrease in cell numbers results in a concomitant change in the amount of formazon formed, indicating the degree of cytotoxicity caused by the test material.
Dissolve 17.7 g IMDM (Iscove's Modified Dulbecco's Medium) powder, 1.5 g sodium bicarbonate pH 7.2-7.4 in 1 L MiliQ water, add 1% Pencilin/ Streptomycin and 10% FBS.
Dissolve 10.6 g Ham's F12 powder, 1.5 g sodium bicarbonate pH 7.2-7.4 in 1 L MiliQ water, add 1% Penicillin/Streptomycin. DMSO used as vehicle.
Ramos cells were re-suspended to a density of 1×10^5 cells/ ml in complete IMDM medium. 95 μL of this cell suspension was added to the 96-well plate to seed ˜10,000 cells per well. The plates were incubated at 37° C. under a humidified atmosphere of 5% CO2 for ˜1 hour before compound addition.
Test compounds (Refer to Table 1) were dissolved in 100% DMSO to generate a 2/6/10/20 mM stock solution. A 200× concentration of the required final concentrations was prepared in DMSO. 10 μL of each concentration (200×) was then diluted in 90 μL of serum-free Ham's F12 medium to get an intermediate concentration of 20× in medium. The DMSO concentration in this step is 10% (Intermediate dilution). 5 μL of each intermediate dilution was then added in triplicates in the previously seeded 96-well plate. The final DMSO concentration was 0.5% in the experimental wells. Cells treated with 0.5% DMSO served as positive control. 100 μL, of complete IMDM medium served as media blank for data analysis. 200 μL, of 1× PBS was added in all corner wells of the assay plate. Plates were then incubated for 72 hrs in an incubator with 5% CO2 at 37° C.
On termination day, 100 μl of XTT solution (1 mg/ml XTT supplemented with 25 μM PMS in Ham's F12 medium) was added to each well. Plates were incubated for 2 hrs. The amount of formazon produced was determined by reading the absorbance of the plate using VICTOR X5 multilabel plate reader at wavelength of 450 nm. The IC50 values were determined as concentrations that reduced cell viability by 50% and the curve was plotted with GraphPad Prism 6.0.
Percent (%) Inhibition was calculated by normalizing DMSO control values to 100% using the formula: % Inhibition=[…](Abs450test compound−blank)/(Abs450positive control−blank)*100
Test compound contains cells, test compound, IMDM medium and 0.5% DMSO
Positive control contains cells, IMDM medium and 0.5% DMSO
Blank contains IMDM medium

L1210 murine leukemia = conditions: cited from earlier work

Structure (SMILES) | Fold greater inhibitor of DHODH than of protein tyrosine kinase (DHODH [1]) | IC50 (DHODH [2]) | inhibition at 30 µM (Ramos cells) | IC50 (Ramos cells) | Anticancer activity (L1210 murine leukemia) | inhibition at 10 µM (Ramos cells)
C/C(O)=C(\C#N)C(=O)Nc1ccc(C(F)(F)F)cc1 [Teriflunomide] | 100-1,000 fold |  |  |  |  | 
Cn1nc2cc(-c3ccc(-c4cccc(CN5CCOCC5)c4)cc3)cc(C(=O)O)c2n1 [Compound 16, 2-methyl-6-(3′-(morpholinomethyl)-[1,1′-biphenyl]-4-yl)-2H-benzo[d][1,2,3]triazole-4-carboxylic acid] |  | > 1 µM | 124% | 6.14 µM |  | 
Cc1c(-c2ccc(-c3ccccc3F)cc2)nc2ccc(F)cc2c1C(=O)O [Brequinar, 6-Fluoro-2-(2′-fluoro[1,1′-biphenyl]-4-yl)-3-methyl-4-quinolinecarboxylic acid] |  |  |  |  | exhibits an anticancer activity | 
Cn1nc2cc(-c3ccc(-c4ccccc4)cc3)cc(C(=O)O)c2n1 [Compound 4, 6-([1,1′-biphenyl]-4-yl)-2-methyl-2H-benzo[d][1,2,3]triazole-4-carboxylic acid] |  | 0.101 to 1 µM | 107% | 1.45 µM |  | 
CN1CCN(Cc2ccccc2-c2ccc(C3=CC4N=NN(C)C4C(C(=O)O)=C3)cc2)CC1 (stereo not drawn) [Compound 29, 1-methyl-5-(2′-((4-methylpiperazin-1-yl)methyl)-[1,1′-biphenyl]-4-yl)-3a,7a-dihydro-1H-benzo[d][1,2,3]triazole-7-carboxylic acid] |  | 0.101 to 1 µM | 81% | 8.97 µM |  | 
Cn1nnc2cc(-c3c(F)c(F)c(-c4cccc(CN5CCCCC5)c4)c(F)c3F)cc(C(=O)O)c21 [Compound 34, 1-methyl-5-(2,3,5,6-tetrafluoro-3′-(piperidin-1-ylmethyl)-[1,1′-biphenyl]-4-yl)-1H-benzo[d][1,2,3]triazole-7-carboxylic acid.2,2,2-trifluoroacetic acid] |  | 0.101 to 1 µM |  | 0.675 µM |  | 111%
Cc1ccccc1-c1ccc(-c2cc(C(=O)O)c3nn(C)nc3c2)cc1 [Compound 8, 2-methyl-6-(2′-methyl-[1,1′-biphenyl]-4-yl)-2H-benzo[d][1,2,3]triazole-4-carboxylic acid] |  | < 0.1 µM | 103% | 0.154 µM |  | 
Cn1nc2cc(-c3c(F)c(F)c(-c4ccccc4)c(F)c3F)cc(C(=O)O)c2n1 [Compound 24, 2-methyl-6-(2,3,5,6-tetrafluoro-[1,1′-biphenyl]-4-yl)-2H-benzo[d][1,2,3]triazole-4-carboxylic acid] |  | < 0.1 µM | 104% | 0.4 µM |  | 
CN1CCN(Cc2ccccc2-c2ccc(-c3cc(C(=O)O)c4nn(C)nc4c3)cc2)CC1 [Compound 30, 2-methyl-6-(2′-((4-methylpiperazin-1-yl)methyl)-[1,1′-biphenyl]-4-yl)-2H-benzo[d][1,2,3]triazole-4-carboxylic acid] |  | > 1 µM | 56% |  |  | 
Cc1ccccc1-c1ccc(-c2cc(C(N)=O)c3nn(C)nc3c2)cc1 [Compound 11, 2-methyl-6-(2′-methyl-[1,1′-biphenyl]-4-yl)-2H-benzo[d][1,2,3]triazole-4-carboxamide] |  | 0.101 to 1 µM |  |  |  | 67%

From patent US11147801B2, “Methods of use for trisubstituted benzotriazole derivatives as dihydroorotate oxygenase inhibitors” (Aurigene Discovery Technologies Limited, priority 2017, dated 2021)
